Data set [1] concerns the target T1, glucocorticoid receptor (Homo sapiens, UniProt P04150).
T1 sequence (P04150 1-777): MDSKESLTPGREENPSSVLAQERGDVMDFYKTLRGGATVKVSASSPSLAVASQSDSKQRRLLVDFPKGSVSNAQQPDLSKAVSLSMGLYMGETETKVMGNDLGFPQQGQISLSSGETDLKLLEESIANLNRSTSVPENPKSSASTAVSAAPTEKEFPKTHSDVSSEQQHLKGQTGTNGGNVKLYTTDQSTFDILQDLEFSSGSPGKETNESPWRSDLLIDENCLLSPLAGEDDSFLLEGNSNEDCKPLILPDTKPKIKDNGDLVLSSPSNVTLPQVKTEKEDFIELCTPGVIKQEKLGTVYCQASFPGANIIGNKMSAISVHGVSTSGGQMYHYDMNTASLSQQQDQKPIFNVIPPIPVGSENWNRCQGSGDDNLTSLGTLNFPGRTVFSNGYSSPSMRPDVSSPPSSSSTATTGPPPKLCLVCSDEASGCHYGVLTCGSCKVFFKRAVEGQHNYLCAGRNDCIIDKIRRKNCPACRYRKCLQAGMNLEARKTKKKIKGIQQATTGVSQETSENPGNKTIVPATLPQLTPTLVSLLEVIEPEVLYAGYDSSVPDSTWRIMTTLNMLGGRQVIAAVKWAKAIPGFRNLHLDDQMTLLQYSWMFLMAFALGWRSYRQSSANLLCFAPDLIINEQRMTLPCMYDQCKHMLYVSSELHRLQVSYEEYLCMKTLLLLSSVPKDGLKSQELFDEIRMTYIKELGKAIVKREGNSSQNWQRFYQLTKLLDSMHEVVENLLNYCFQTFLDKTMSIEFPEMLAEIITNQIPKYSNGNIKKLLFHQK
Particulars: variety of human in vitro assays; cited from earlier work.

Data set [2] deals with models of lung inflammation. Particulars: rat, intratracheal dosing; cited from earlier work.
Data set [3] can be described thus: plasma exposure after BID eyelid cream administration in minipigs. It is filed as in vivo, Hanford minipigs. The method, then: (§1) To determine the ocular exposure and pharmacokinetics following topical cream administration to the eyelids, the cream containing 2% of compound of Formula I was applied BID to eyelids of 8 Hanford minipigs for 7 days and one additional application on day 8 for a total of 15 topical doses. After the last dose on day 8, two animals each were euthanized at 2, 4, 8, and 24 hours after the final dose, and eyes were collected for dissection into the following tissues and fluids: eyelids (including palpebral conjunctiva), bulbar conjunctiva, cornea, iris/ciliary body (ICB), and aqueous humor (AQH). Plasma was also collected (prior to dose application on Days 1 and 8, and prior to euthanasia). […] Meibum was believed to be only one lipid compartment in the eyelids that could act as a depot for lipophilic compounds. […] and other fatty tissues were others. Attempts to express meibum from the ducts, thereby rendering the eyelid itself unusable for further analysis, would have not permitted assessment of drug content in other potential lipid structures in the eyelids. Thus, the decision was made to assess drug exposure in the eyelid as an intact tissue to capture all potential drug depots.
Three different extraction and analytical methods were developed for the determination of the compound of Formula I in i) plasma and aqueous humor; ii) bulbar conjunctiva, cornea, ICB; iii) eyelids. Assay ranges were 0.1-100 ng/mL, 1-1000 ng/g, and 1-1000 ng/g, respectively. Briefly, analytical methods were as follows: i) plasma and aqueous humor standards were from minipig and rabbit, respectively; ii) bulbar conjunctiva, cornea, ICB standard was rabbit cornea; iii) eyelid standard was pig skin. The internal standard working solution for analytical purposes was comprised of 20.0 ng/mL ^13C2, ^15N-labeled compound of Formula I in acetonitrile with 1% formic acid (v/v) which was being added to each sample. […]

The test system of data set [4] is rabbits, atropine sulfate model of dry eye disease. The data set is described as follows: tear formation (Schirmer test) in atropine sulfate model of dry eye disease. Particulars: 30 μL eye drops four times per day after atropine sulfate 1%, seven days. The data set is classed as in vivo. On the procedure:
Next, the effect on tear formation of treatment with the compound of Formula I was examined. Rabbits were placed in a restraining device, and atropine sulfate 1% ophthalmic solution (30 μL) was instilled into the lower conjunctival sac of each eye four times per day. Fifteen minutes after the administration of each dose of atropine sulfate, each eye received 30 μL of eye drops containing the active ingredient, vehicle, or saline. Tear volume was then evaluated by the Schirmer test (FIG. 2). Schirmer strips were carefully placed in the posterior (i.e., temporal) lower fornix for 60 seconds, and the wetted area was read in millimeters as an index of tear volume.

The nature of data set [5]: ocular exposure and pharmacokinetics after BID eyelid cream administration in minipigs. It is filed as in vivo, Hanford minipigs. The note with it: for concentration at 8 h: 8 hours post final dose. The method, then: as §1
Three different extraction and analytical methods were developed for the determination of the compound of Formula I in i) plasma and aqueous humor; ii) bulbar conjunctiva, cornea, ICB; iii) eyelids. Assay ranges were 0.1-100 ng/mL, 1-1000 ng/g, and 1-1000 ng/g, respectively. Briefly, analytical methods were as follows: i) plasma and aqueous humor standards were from minipig and rabbit, respectively; ii) bulbar conjunctiva, cornea, ICB standard was rabbit cornea; iii) eyelid standard was pig skin. The internal standard working solution for analytical purposes was comprised of 20.0 ng/mL ^13C2, ^15N-labeled compound of Formula I in acetonitrile with 1% formic acid (v/v) which was being added to each sample. The tissue/fluid sample extraction procedure involved i) plasma/aqueous humor sample; ii) bulbar conjunctiva, cornea, ICB homogenization in acetonitrile; iii) eyelid digestion in 1:1 acetonitrile:ammonium hydroxide solution for 1.5 hours at 37° C. followed by acetonitrile addition, homogenization, and neutralization with formic acid; in all cases followed by addition of internal standard working solution, vortexing and centrifugation. Analysis of the samples was then carried out with LC-MS/MS, employing mobile phases A (Water with 0.1% formic acid) and B (acetonitrile with 0.1% formic acid).

Data set [6] concerns the target T1, glucocorticoid receptor. Particulars: number of assays; cited from earlier work.
The nature of another data set: protein binding. The data set is classed as in vitro ADME.
Data set [7] can be described thus: solubility limit in receptor fluid. The data set is classed as physicochemical. The note with it: not told, aqueous with cosolvent or surfactant or cyclodextrin; phosphate-buffered saline pH 7.4 with 0.01 wt % Na azide and 1 wt % Brij 020.
Data set [8] concerns models of lung inflammation. The note with it: mouse, intratracheal dosing; cited from earlier work.
Another data set deals with NFκB pathway. Particulars: A549, HeLa, MG63, 16HBE, and H9 cell lines; IL-1β / TNFα stimulation; cited from earlier work.

One may read the fraction unbound as free concentration divided by total concentration. As a reminder, the solubility is the dissolved amount per volume that the medium holds.

Where two headings read alike, the source gives them in different places.

Turning to `C[C@@H]1C[C@H]2[C@@H]3C[C@H](F)C4=CC(=O)C=C[C@]4(C)[C@@]3(F)[C@@H](O)C[C@]2(C)[C@@]1(OC(=O)C1C(C)(C)C1(C)C)C(=O)OCC#N` [compound of Formula I, 6α,9α-difluoro-11 β-hydroxy-16α-methyl-3-oxo-17α-(2,2,3,3-tetramethycyclopropylcarbonyl)oxy-androsta-1,4-diene-17β-carboxylic acid cyanomethyl ester], the “glucocorticoid receptor-mediated transrepression activity” value on glucocorticoid receptor [1] is reported as “close to full agonism”. For the same compound, the “anti-inflammatory activity in models of lung inflammation” value in data set [2] and in data set [8] was “potent anti-inflammatory activity” in each case. The same compound gave a highest plasma concentration in data set [3] (24 hours following the final Day 8 dose) of 2.22 ng/mL. In data set [3] (after 7.5 days of multiple topical eyelid application), the systemic accumulation result is “no or very low systemic accumulation”. Further, the plasma exposure result in data set [3] (up to 24 hours after last application, LLOQ 0.1 ng/mL) was “generally low or below the lower limit of quantification”. Besides, the “tear formation (Schirmer test)” value in [4] is “prevented a decrease in tear formation similar to topical dexamethasone”. The “highest mean concentration in eyelid tissue” value in [5] (4 hours post final dose, 2% cream, 15 applications over 7.5 days) came out at 30613 ng/g. The concentration at 8 h was 5.81 ng/g in data set [5] (Hanford, minipig, aqueous humor, topical, BID, 2% cream, 15 applications over 7.5 days, read-out: mean concentration in aqueous humor) and 452 ng/g in [5] (Hanford, minipig, cornea, topical, BID, 2% cream, 15 applications over 7.5 days, read-out: mean concentration in cornea). This compound showed a concentration at 4 h in data set [5] (Hanford, minipig, bulbar conjunctiva, topical, BID, 4 hours post final dose, 2% cream, 15 applications over 7.5 days) of 1930 ng/g. The same compound yielded a concentration at 24 h in data set [5] (Hanford, minipig, iris/ciliary body (ICB), topical, BID, 24 hours post final dose, 2% cream, 15 applications over 7.5 days) of 20.5 ng/g. Also, in [5] (eyelids, conjunctiva, cornea, ICB, aqueous humor, post final peri-ocular dose), the “exposure levels in each compartment over time” value was “remained almost constant for up to 24 hours”. In addition, the glucocorticoid receptor-mediated transactivation entry on glucocorticoid receptor [6] is listed as “partial response”. In “protein binding”, this compound had a fraction unbound of approximately 0.01. This compound displayed a solubility in data set [7] of approximately 35.8 µg/mL. Besides, the “transrepression of NFκB pathway activation (IL-6, IL-8 release)” value with NFκB pathway is “potently and efficiently transrepress”.

Values taken from patent publication US12350277B2, “Compositions and methods of use for treating aberrant inflammation in peri-ocular secretory glands or at the ocular surface” (CS Pharmaceuticals Limited, priority 2017, dated 2025).
